The record followed here is patent publication US7195787B1, “Skincare composition against free radicals” (The Boots Company PLC, priority 1999, dated 2007).

Structures are written as SMILES.

This test can be described thus: lipid peroxidation assay: protection of linoleic acid from UV light. The settings on record: antioxidant at the printed concentration (1.50%, 0.10%, 0.10%, combination 1.70%). Format: biochemical. As to the method:
The following procedure tests the ability of antioxidants to protect lipids form the damaging effects of UV light. The antioxidants to be tested are morus alba (“Mulberry Concentrate” from Aston Chemicals), magnesium ascorbyl phosphate and panax ginseng (“Phytexcell Panax ginseng” from Croda Chemicals Ltd). The antioxidants were tested individually at a particular concentration and in combination. In the test the antioxidant or combination of antioxidants is mixed with a known skin lipid (linoleic acid) and irradiated using UV light. The quantity of peroxides in each sample is measured colourimetrically after irradiation to assess the level of damage caused by peroxidation of the linoleic acid.
A 1% lipid stock solution is prepared dissolving linoleic in an aqueous solution of octoxynol-9 (Triton X-100). Stock solutions in aqueous TBS buffer of the following antioxidants magnesium ascorbyl phosphate, morus alba and panax ginseng were prepared at 15%, 1.0% and 1.0% respectively. […]
Using a micropipette plate 7.5 μl of each sample is pipetted into 3 wells, i.e. in triplicate, and irradiated with UV light for 40 minutes. […] The reaction that occurs causes a colour change from colourless to blue which is measured colourimetrically at 675 nm. The more peroxides present the darker the blue colouration and the higher the observed absorbance.

On to `O=C1O[C@H]([C@@H](O)CO)C([O-])=C1OP(=O)([O-])[O-].O=C1O[C@H]([C@@H](O)CO)C([O-])=C1OP(=O)([O-])[O-].[Mg+2].[Mg+2].[Mg+2]` [Magnesium ascorbyl phosphate, magnesium ascorbyl phosphate], for which, for the setting “675 nm, after 40 minutes UV, 0.5% linoleic acid”, the Absorbance is 0.84. Besides, the “percentage of peroxidation observed when compared to that seen with the irradiated controls” value (40 minutes UV) was over 100%.
